How the values were obtained:
[1] = molecular target: T1, wild type AXL (wtAXL) receptor tyrosine kinase (Homo sapiens, UniProt P30530); test: NIH-3T3-AXL cellular tyrosine kinase assay (inhibition of AXL phosphorylation); assay type: cell-based; settings: AXL phosphorylation in NIH-3T3-AXL (clone 22) cells, serum-depleted, 2 h with compound, immunoprecipitation / anti-phosphotyrosine blot
T1 construct: WtAXL cDNA was cloned into vector pLXSN(ESK) and transfected into Phoenix E packaging cells; expressed in transfected cells; host or cells: NIH3T3 N7 mouse fibroblasts, retrovirally infected (clone 22)
T1 sequence (P30530 26-894): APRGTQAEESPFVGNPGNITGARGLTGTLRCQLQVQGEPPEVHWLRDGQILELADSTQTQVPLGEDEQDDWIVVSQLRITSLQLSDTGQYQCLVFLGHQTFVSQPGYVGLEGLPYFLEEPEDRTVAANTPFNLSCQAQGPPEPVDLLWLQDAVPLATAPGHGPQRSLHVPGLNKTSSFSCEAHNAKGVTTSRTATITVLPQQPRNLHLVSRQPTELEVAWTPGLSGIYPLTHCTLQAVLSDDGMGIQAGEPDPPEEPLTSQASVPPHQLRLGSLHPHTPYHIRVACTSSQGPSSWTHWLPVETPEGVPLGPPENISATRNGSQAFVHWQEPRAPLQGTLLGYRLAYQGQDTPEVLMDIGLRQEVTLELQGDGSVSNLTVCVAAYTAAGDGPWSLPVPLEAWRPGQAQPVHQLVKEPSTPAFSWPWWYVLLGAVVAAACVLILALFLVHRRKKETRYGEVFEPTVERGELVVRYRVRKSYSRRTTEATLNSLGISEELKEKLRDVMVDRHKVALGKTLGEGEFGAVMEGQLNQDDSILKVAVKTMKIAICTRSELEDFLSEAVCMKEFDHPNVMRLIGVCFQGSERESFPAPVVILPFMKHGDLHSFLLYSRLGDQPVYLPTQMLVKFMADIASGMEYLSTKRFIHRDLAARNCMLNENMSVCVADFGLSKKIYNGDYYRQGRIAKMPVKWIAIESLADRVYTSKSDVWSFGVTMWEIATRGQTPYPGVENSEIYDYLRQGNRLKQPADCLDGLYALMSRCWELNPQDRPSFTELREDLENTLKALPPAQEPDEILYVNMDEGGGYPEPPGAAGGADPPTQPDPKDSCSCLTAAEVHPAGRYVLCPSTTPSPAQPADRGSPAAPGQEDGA
In short: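 Compound inhibition of AXL autophosphorylation was read by 4G10 immunoblot after anti-AXL immunoprecipitation from lysates. Cells: NIH3T3 lines stably carrying retroviral wild-type human AXL, treated 2 h with compound dilution series.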

| IC50 [1] [nM] | melting point [°C] | Structure (SMILES) |
| --- | --- | --- |
| > 10000 | 118 to 120 | COc1cc2nccc(Oc3ccc(NS(=O)(=O)c4cccc5ccccc45)cc3C)c2cc1OC [Example A77, Naphthalene-1-sulfonic acid [4-(6,7-dimethoxy-quinolin-4-yloxy)-3-methyl-phenyl]-amide] |
| 700 | 214 to 216 | COc1cc(S(=O)(=O)Nc2ccc(Oc3ccnc4cc(OC)c(OC)cc34)cc2F)ccc1F [Example A61, N-[4-(6,7-Dimethoxy-quinolin-4-yloxy)-2-fluoro-phenyl]-4-fluoro-3-methoxy-benzenesulfonamide] |

Source: patent US9206130B2, “Quinoline derivatives as AXL kinase inhibitors” (Max-Planck-Gesellschaft zur Förderung der Wissenschaften …, priority 2008, dated 2015)
